According to US9975893B2, “Pyrazolo[3,4-c]pyridine derivatives” (CSPC ZHONGQI PHARMACEUTICAL TECHNOLOGY (SHIJIAZHUANG) CO., …, priority 2014, dated 2018):

Tests used:
[1] = tested on: Male SD rats; assay: Arteriovenous shunt model in rats; assay type: in vivo, rat; parameters: concentration or dose not given beside the values; settings: rats given orally 2-4 hours before shunt opened; shunt 15 minutes; thrombus weight, treated vs. mean vehicle
Description: III. Arteriovenous Shunt Model in Rats
Two 10 cm-long polyethylene tubings (1.50 and 2.88 mm of inner and outer diameter, respectively) linked to a central part (8 cm-long, 2.11 and 3.77 mm of inner and outer diameter, respectively) containing a 6 cm silk thread and filled with heparin (3.125 U/ml) were placed between the right carotid artery and the left jugular vein in rats.
Male SD rats were anesthetized by intraperitoneal injection of 10% chloral hydrate after oral dose, inverted fixation, then the right catotid artery and left vena jugularis externa were isolated, the proximal and distal sutures of catotid artery were tied. The syringe needle were cannulated into the catotid artery and fasted, the other of the tube was cannulated into the right vena jugularis externa. Rats were given orally 2-4 hours before the shunt was opened. Blood flowed from the right carotid artery into the polyethylene tubing and then return to left vena jugularis externa. The shunt was then disconnected 15 minutes later and the silk thread covered with thrombus was immediately withdrawn and weighed. The wet weight of the thrombus was determined. Then the silk thread was dried at 60° C. for 4 h to get the dry weight of the thrombus. The anti-thrombotic effects of these agents were expressed as percentage inhibition of thrombus formation based on the treated vs. the corresponding mean vehicle.

[2] = tested on: Male SD rats; assay: Rat tail bleeding model; assay type: in vivo; settings: rat tail transected 0.5 to 4 hours after administration; prolongation = ratio of treated vs. mean vehicle value; relative to apixaban
Procedure: II Rat Tail Bleeding Model
Male SD rats were allocated randomly and administrated. After the administration, the rats were anesthetized by intraperitoneal injection of 10% chloral hydrate. At the time point of 0.5 to 4 hours (Tmax in PK) after the administration, the tails of anesthetized rats were transected 3 mm from the tip and vertically immersed in saline at 37° C. The time point when the continuous blood flow ceased for >30 s was measured. The prolongation of bleeding time was expressed as a ratio of treated vs. the mean vehicle value. Effects of compounds were determined as described below.

[3] = molecular target: T1, Factor Xa (Homo sapiens, UniProt P00742); assay: Anti-Factor Xa activity assay (chromogenic substrate CS-11(22)); assay type: biochemical; settings: ratio of compound IC50 to apixaban IC50; Factor Xa 0.1 U/ml, absorbance at 405 nm, 37° C.
T1 construct: purchased MERK
Procedure: I. Anti-Factor Xa Activity Assay
Substrate: CS-1122 (Hyphen)
Buffer: 50 mM TrisHCl, 150 mM NaCl, PH8.3
100 μL of buffer, 50 μL of different concentrations of compounds (diluted with buffer) and 50 μl of 0.1 U/ml Factor Xa enzyme (diluted with buffer) were added to a 96-well plate. After 15 min of exposure, 50 μL of chromogenic substrate 2.5 mg/ml CS-11 (22) was added. The substrate hydrolysis was monitored by measuring absorbance at 405 nm at 37° C. for up to 30 min (interval: 30 seconds) using a microplate spectrophotometer. IC50 was calculated by bliss.

T1 sequence (P00742 235-488 limits assumed): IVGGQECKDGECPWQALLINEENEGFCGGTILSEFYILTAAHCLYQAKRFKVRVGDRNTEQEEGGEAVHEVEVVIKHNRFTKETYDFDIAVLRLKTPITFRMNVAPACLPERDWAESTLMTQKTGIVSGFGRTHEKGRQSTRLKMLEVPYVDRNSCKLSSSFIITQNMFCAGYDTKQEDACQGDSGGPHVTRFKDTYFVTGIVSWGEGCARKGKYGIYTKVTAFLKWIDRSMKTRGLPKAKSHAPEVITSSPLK
T1 sequence (P00742 41-179 partner limits assumed): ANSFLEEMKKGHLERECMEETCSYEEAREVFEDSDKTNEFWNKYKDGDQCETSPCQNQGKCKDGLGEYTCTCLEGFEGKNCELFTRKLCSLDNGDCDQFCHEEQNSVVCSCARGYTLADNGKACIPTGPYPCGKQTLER

SMILES	Inhibition of thrombus formation (%) [1] [%]	The Prolongation of bleeding time (compound)/The Prolongation of bleeding time(apixaban) [2]	IC50(Compound)/IC50(apixaban) [3]
CCOc1ccc(-n2nc(C(N)=O)c3c2C(=O)N(c2ccc(N4CCCCC4=O)c(C)c2)CC3)cc1F [A 32, 1-(3-fluoro-4-ethoxyphenyl)-6-(3-methyl-4-(2-oxopiperidin-1-yl)phenyl)-7-oxo-4,5,6,7-tetrahydro-1H-pyrazolo[3,4-c]pyridine-3-carboxamide]	61.4	<1	<1
CCOc1ccc(-n2nc(C(N)=O)c3c2C(=O)N(c2ccc(-n4cccc(C)c4=O)cc2)CC3)cc1Cl [A 30, 1-(3-chloro-4-ethoxyphenyl)-6-(4-(3-methyl-2-oxopyridin-1(2H)-yl)phenyl)-7-oxo-4,5,6,7-tetrahydro-1H-pyrazolo[3,4-c]pyridine-3-carboxamide]	–	<1	<2
CCOc1ccc(-n2nc(C(N)=O)c3c2C(=O)N(c2ccc(N4CCOCC4=O)c(C)c2)CC3)cc1 [A 33, 1-(4-ethoxyphenyl)-6-(3-methyl-4-(3-oxomorpholino)phenyl)-7-oxo-4,5,6,7-tetrahydro-1H-pyrazolo[3,4-c]pyridine-3-carboxamide]	60.8	<1	<1
CCOc1ccc(-n2nc(C(N)=O)c3c2C(=O)N(c2ccc(-n4cccc(C)c4=O)c(C)c2)CC3)cc1F [A 40, 1-(3-fluoro-4-ethoxyphenyl)-6-(3-methyl-4-(3-methyl-2-oxopyridin-1(2H)-yl)phenyl)-7-oxo-4,5,6,7-tetrahydro-1H-pyrazolo[3,4-c]pyridine-3-carboxamide]	63.4	<1	<1
CCOc1ccc(-n2nc(C(N)=O)c3c2C(=O)N(c2ccc(N4CCCCC4=O)c(C)c2)CC3)cc1 [A 31, 1-(4-ethoxyphenyl)-6-(3-methyl-4-(2-oxopiperidin-1-yl)phenyl)-7-oxo-4,5,6,7-tetrahydro-1H-pyrazolo[3,4-c]pyridine-3-carboxamide]	71.5	<1	<1
COc1ccc(-n2nc(C(N)=O)c3c2C(=O)N(c2ccc(N4CCCCC4=O)c(C)c2)CC3)cc1 [A 16, 1-(4-methoxyphenyl)-6-(3-methyl-4-(2-oxopiperidin-1-yl)phenyl)-7-oxo-4,5,6,7-tetrahydro-1H-pyrazolo[3,4-c]pyridine-3-carboxamide]	–	–	<1
CCOc1ccc(-n2nc(C(N)=O)c3c2C(=O)N(c2ccc(-n4cccc(C)c4=O)cc2)CC3)cc1 [A 28, 1-(4-ethoxyphenyl)-6-(4-(3-methyl-2-oxopyridin-1(2H)-yl)phenyl)-7-oxo-4,5,6,7-tetrahydro-1H-pyrazolo[3,4-c]pyridine-3-carboxamide]	73.1	<1	<1
COc1ccc(-n2nc(C(N)=O)c3c2C(=O)N(c2ccc(N4CCOCC4=O)c(C)c2)CC3)cc1F [A 48, 1-(3-fluoro-4-methoxyphenyl)-6-(3-methyl-4-(3-oxomorpholino)phenyl)-7-oxo-4,5,6,7-tetrahydro-1H-pyrazolo[3,4-c]pyridine-3-carboxamide]	–	–	<1
COc1ccc(-n2nc(C(N)=O)c3c2C(=O)N(c2ccc(N4CCOCC4=O)c(C)c2)CC3)cc1 [A 17, 1-(4-methoxyphenyl)-6-(3-methyl-4-(3-oxomorpholino)phenyl)-7-oxo-4,5,6,7-tetrahydro-1H-pyrazolo[3,4-c]pyridine-3-carboxamide]	–	–	<1
CCOc1ccc(-n2nc(C(N)=O)c3c2C(=O)N(c2ccc(-n4ccccc4=O)c(C)c2)CC3)cc1F [A 38, 1-(3-fluoro-4-ethoxyphenyl)-6-(3-methyl-4-(2-oxopyridin-1(2H)-yl)phenyl)-7-oxo-4,5,6,7-tetrahydro-1H-pyrazolo[3,4-c]pyridine-3-carboxamide]	70.5	<1	<1
CCOc1ccc(-n2nc(C(N)=O)c3c2C(=O)N(c2ccc(-n4cccc(C)c4=O)cc2)CC3)cc1F [A 27, 1-(3-fluoro-4-ethoxyphenyl)-6-(4-(3-methyl-2-oxopyridin-1(2H)-yl)phenyl)-7-oxo-4,5,6,7-tetrahydro-1H-pyrazolo[3,4-c]pyridine-3-carboxamide]	68.7	<1	<2
CCOc1ccc(-n2nc(C(N)=O)c3c2C(=O)N(c2ccc(N4CCCCC4=O)cc2)CC3)cc1Cl [A 29, 1-(3-chloro-4-ethoxyphenyl)-6-(4-(2-oxopiperidin-1-yl)phenyl)-7-oxo-4,5,6,7-tetrahydro-1H-pyrazolo[3,4-c]pyridine-3-carboxamide]	67.4	<1	<2
CCOc1ccc(-n2nc(C(N)=O)c3c2C(=O)N(c2ccc(-n4ccccc4=O)c(C)c2)CC3)cc1 [A 37, 1-(4-ethoxyphenyl)-6-(3-methyl-4-(2-oxopyridin-1(2H)-yl)phenyl)-7-oxo-4,5,6,7-tetrahydro-1H-pyrazolo[3,4-c]pyridine-3-carboxamide]	63.7	<1	<1
CCOc1ccc(-n2nc(C(N)=O)c3c2C(=O)N(c2ccc(N4CCCC4=O)c(C)c2)CC3)cc1 [A 35, 1-(4-ethoxyphenyl)-6-(3-methyl-4-(2-oxopyrrolidin-1-yl)phenyl)-7-oxo-4,5,6,7-tetrahydro-1H-pyrazolo[3,4-c]pyridine-3-carboxamide]	–	<1	<2
COc1ccc(-n2nc(C(N)=O)c3c2C(=O)N(c2ccc(N4CCCCC4=O)c(C)c2)CC3)cc1F [A 47, 1-(3-fluoro-4-methoxyphenyl)-6-(3-methyl-4-(2-oxopiperidin-1-yl)phenyl)-7-oxo-4,5,6,7-tetrahydro-1H-pyrazolo[3,4-c]pyridine-3-carboxamide]	–	–	<1
COc1ccc(-n2nc(C(N)=O)c3c2C(=O)N(c2ccc(-n4ccccc4=O)c(C)c2)CC3)cc1F [A 50, 1-(3-fluoro-4-methoxyphenyl)-6-(3-methyl-4-(2-oxopyridin-1(2H)-yl)phenyl)-7-oxo-4,5,6,7-tetrahydro-1H-pyrazolo[3,4-c]pyridine-3-carboxamide]	–	–	<1
COc1ccc(-n2nc(C(N)=O)c3c2C(=O)N(c2ccc(N4CCSCC4=O)cc2)CC3)cc1 [A 3, 1-(4-methoxyphenyl)-6-(4-(3-oxothiomorpholino)phenyl)-7-oxo-4,5,6,7-tetrahydro-1H-pyrazolo[3,4-c]pyridine-3-carboxamide]	–	–	<1
COc1ccc(-n2nc(C(N)=O)c3c2C(=O)N(c2ccc(-n4cccc(C)c4=O)c(C)c2)CC3)cc1F [A 51, 1-(3-fluoro-4-methoxyphenyl)-6-(3-methyl-4-(3-methyl-2-oxopyridin-1(2H)-yl)phenyl)-7-oxo-4,5,6,7-tetrahydro-1H-pyrazolo[3,4-c]pyridine-3-carboxamide]	–	–	<1
COc1ccc(-n2nc(C(N)=O)c3c2C(=O)N(c2ccc(-n4ccccc4=O)c(C)c2)CC3)cc1 [A 19, 1-(4-methoxyphenyl)-6-(3-methyl-4-(2-oxopyridin-1(2H)-yl)phenyl)-7-oxo-4,5,6,7-tetrahydro-1H-pyrazolo[3,4-c]pyridine-3-carboxamide]	–	–	<1
